# Results reported in ChEMBL document CHEMBL1201862, “PubChem BioAssay data set” (2004).
#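 Dose response: 5 concentrations. Exposure: 48 h. Format: 96-well plates. Endpoint: linear interpolation; highest concentration if not reached. GI50 = concentration required for 50% inhibition of growth.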 Activity calls are given as the source filed them. Rule as the data show it: active = GI50 up to about 1.1 µM and inactive = higher.
# Experiments:
# Test in all cases: growth of human tumour cells (NCI), 48 h
# SNB-75 = tested on: SNB-75
# SK-MEL-2 = tested on: SK-MEL-2
# NCI-H460 = tested on: NCI-H460
# CAKI-1 = tested on: CAKI-1
# UACC-257 = tested on: UACC-257
# MOLT-4 = tested on: MOLT-4
# HOP-92 = tested on: HOP-92
# NCI-H522 = tested on: NCI-H522
# SF-295 = tested on: SF-295
# HCT-15 = tested on: HCT-15
# SF-539 = tested on: SF-539
# SK-MEL-28 = tested on: SK-MEL-28
# ACHN = tested on: ACHN
# HCT-116 = tested on: HCT-116
# EKVX = tested on: EKVX
# MCF7 = tested on: MCF7
# NCI/ADR-RES = tested on: NCI/ADR-RES
# MDA-MB-231 = tested on: MDA-MB-231
# PC-3 = tested on: PC-3
Structure (SMILES),GI50 (SNB-75),GI50 (SK-MEL-2),GI50 (NCI-H460),GI50 (CAKI-1),GI50 (UACC-257),GI50 (MOLT-4),GI50 (HOP-92),GI50 (NCI-H522),GI50 (SF-295),GI50 (HCT-15),GI50 (SF-539),GI50 (SK-MEL-28),GI50 (ACHN),GI50 (HCT-116),GI50 (EKVX),GI50 (MCF7),GI50 (NCI/ADR-RES),GI50 (MDA-MB-231),GI50 (PC-3)
S=C1CNC(=S)CN1,> 100 µM (inactive),> 100 µM (inactive),> 100 µM (inactive),> 100 µM (inactive),> 100 µM (inactive),> 100 µM (inactive),> 100 µM (inactive),> 100 µM (inactive),> 100 µM (inactive),> 100 µM,> 100 µM (inactive),> 100 µM (inactive),> 100 µM (inactive),> 100 µM (inactive),–,–,–,–,–
CC(=O)O[C@H]1C(=O)[C@@]2(C)C(C(OC(=O)c3ccccc3)[C@]3(O)CC(OC(=O)C(O)C(NC(=O)c4ccccc4)c4ccc(C)cc4)C(C)=C1C3(C)C)[C@]1(OC(C)=O)CO[C@@H]1C[C@@H]2O (stereo partly drawn),0.0531 µM (active),0.0179 µM (active),0.00826 µM (active),0.104 µM (active),0.0656 µM (active),0.0163 µM (active),0.565 µM (active),0.0108 µM (active),0.0787 µM (active),0.897 µM,0.0106 µM (active),–,0.466 µM (active),0.00938 µM (active),8.95 µM (inactive),–,–,–,–
O=C(NC1CCCC1=O)c1ccccc1 (stereo not drawn),31.5 µM (inactive),> 100 µM (inactive),> 100 µM (inactive),> 100 µM (inactive),> 100 µM (inactive),> 100 µM (inactive),> 100 µM (inactive),–,> 100 µM (inactive),–,> 100 µM (inactive),> 100 µM (inactive),> 100 µM (inactive),> 100 µM (inactive),> 100 µM (inactive),–,–,–,–
Nc1nc(=O)n([C@@H]2CC[C@H](CO)O2)cc1F,> 100 µM (inactive),> 100 µM (inactive),> 100 µM (inactive),> 100 µM (inactive),> 100 µM (inactive),> 100 µM (inactive),> 100 µM (inactive),> 100 µM (inactive),> 100 µM (inactive),> 100 µM,–,> 100 µM (inactive),> 100 µM (inactive),–,> 100 µM (inactive),–,–,–,–
CC(=O)Oc1ccc2c(c1)C(=O)c1nc(C)c(C)nc1C2=O,80.4 µM (inactive),39.6 µM (inactive),30.8 µM (inactive),> 76.6 µM (inactive),36.6 µM (inactive),41.8 µM (inactive),> 87.1 µM (inactive),50.6 µM (inactive),49.9 µM (inactive),40.9 µM,25.8 µM (inactive),46.1 µM (inactive),48.4 µM (inactive),43.7 µM (inactive),> 48.6 µM (inactive),–,–,–,–
Brc1ccc(-c2cc3c(cc2C2SCCS2)OCO3)cc1,1.25 µM (inactive),28.8 µM (inactive),29.6 µM (inactive),–,30 µM (inactive),13.4 µM (inactive),–,10.9 µM (inactive),28.2 µM (inactive),29.7 µM,11.5 µM (inactive),> 100 µM (inactive),16.5 µM (inactive),30.1 µM (inactive),10.7 µM (inactive),–,–,–,–
Cn1c(=O)n(C2(C)CSC2)c2ccccc21,> 100 µM (inactive),–,> 100 µM (inactive),> 100 µM (inactive),> 100 µM (inactive),> 100 µM (inactive),> 100 µM (inactive),> 100 µM (inactive),> 100 µM (inactive),> 100 µM,> 100 µM (inactive),> 100 µM (inactive),> 100 µM (inactive),> 100 µM (inactive),> 100 µM (inactive),–,–,–,–
Cc1ccc(S(=O)(=O)N/N=C/CN2C(=O)c3ccccc3C2=O)cc1,> 100 µM (inactive),> 100 µM (inactive),> 100 µM (inactive),> 100 µM (inactive),> 100 µM (inactive),> 100 µM (inactive),–,> 100 µM (inactive),> 100 µM (inactive),> 100 µM,> 100 µM (inactive),–,> 100 µM (inactive),> 100 µM (inactive),> 100 µM (inactive),–,–,–,–
Nc1ncn(C2C=C(CO)C(O)C2O)c(=O)n1 (stereo not drawn),> 100 µM (inactive),94.4 µM (inactive),35 µM (inactive),40.7 µM (inactive),> 100 µM (inactive),59.4 µM (inactive),–,37.2 µM (inactive),–,54.2 µM,63.5 µM (inactive),> 100 µM (inactive),46.5 µM (inactive),40 µM (inactive),> 100 µM (inactive),–,–,–,–
CNC(=O)C1CCc2nnc(-c3ccccc3)n21 (stereo not drawn),> 100 µM (inactive),> 100 µM (inactive),> 100 µM (inactive),> 100 µM (inactive),> 100 µM (inactive),> 100 µM (inactive),–,> 100 µM (inactive),–,> 100 µM,> 100 µM (inactive),> 100 µM (inactive),> 100 µM (inactive),> 100 µM (inactive),55.2 µM (inactive),–,–,–,–
CC(C)(C)C1=CC(CCC(=O)Nc2ccccc2[N+](=O)[O-])=NC(S)N1 (stereo not drawn),–,> 100 µM (inactive),> 100 µM (inactive),> 100 µM (inactive),> 100 µM (inactive),> 100 µM (inactive),> 100 µM (inactive),–,> 100 µM (inactive),> 100 µM,> 100 µM (inactive),> 100 µM (inactive),> 100 µM (inactive),> 100 µM (inactive),> 100 µM (inactive),–,–,–,–
COc1cc(C2C(Cl)C(=O)N2NC(=O)c2ccc(N)cc2)ccc1O (stereo not drawn),75.5 µM (inactive),59.8 µM (inactive),22.9 µM (inactive),25.5 µM (inactive),> 100 µM (inactive),23.5 µM (inactive),25.5 µM (inactive),19.8 µM (inactive),67.8 µM (inactive),39.9 µM,26.5 µM (inactive),39.2 µM (inactive),> 100 µM (inactive),22.9 µM (inactive),92 µM (inactive),–,–,–,–
CC(c1ccc2c(c1)CCC1C2CC2OC23CC=CC(=O)[C@]13C)C1C[C@]2(C)O[C@]2(C)[C@H](O)O1 (stereo partly drawn),58.9 µM (inactive),52.2 µM (inactive),25.2 µM (inactive),7.64 µM (inactive),11.1 µM (inactive),13.4 µM (inactive),92.9 µM (inactive),14 µM (inactive),–,82.4 µM,82.4 µM (inactive),50.8 µM (inactive),33.7 µM (inactive),0.256 µM (active),5.48 µM (inactive),–,–,–,–
O=C(O)c1cc(Cl)cc(NC(=O)C(Cl)Cl)c1Cl,> 100 µM (inactive),> 100 µM (inactive),> 100 µM (inactive),> 100 µM (inactive),> 100 µM (inactive),> 100 µM (inactive),–,> 100 µM (inactive),> 100 µM (inactive),> 100 µM,> 100 µM (inactive),> 100 µM (inactive),> 100 µM (inactive),> 100 µM (inactive),> 100 µM (inactive),–,–,–,–
CC(=O)Nc1ccc(/C=C/C(=O)c2sc(-c3nc(C)c(C(=O)/C=C/c4ccc(NC(C)=O)cc4)s3)nc2C)cc1,–,> 100 µM (inactive),> 100 µM (inactive),> 100 µM (inactive),> 100 µM (inactive),> 100 µM (inactive),–,> 100 µM (inactive),> 100 µM (inactive),> 100 µM,> 100 µM (inactive),> 100 µM (inactive),> 100 µM (inactive),> 100 µM (inactive),> 100 µM (inactive),–,–,–,–
Cc1ccc(N2C(=O)/C(=C/c3ccc(N(CCC#N)CCC#N)cc3C)N=C2c2cc([N+](=O)[O-])ccc2Cl)cc1,> 100 µM (inactive),> 100 µM (inactive),> 100 µM (inactive),56 µM (inactive),> 100 µM (inactive),91.2 µM (inactive),> 100 µM (inactive),> 100 µM (inactive),> 100 µM (inactive),> 100 µM,> 100 µM (inactive),> 100 µM (inactive),> 100 µM (inactive),> 100 µM (inactive),–,–,–,–,–
CCN(CC)CCCNC(=O)c1cc(-c2nccn2C)nc2ccccc12,57.7 µM (inactive),> 100 µM (inactive),59.7 µM (inactive),> 100 µM (inactive),> 100 µM (inactive),> 100 µM (inactive),> 100 µM (inactive),> 100 µM (inactive),–,> 100 µM,> 100 µM (inactive),–,> 100 µM (inactive),> 100 µM (inactive),> 100 µM (inactive),> 100 µM (inactive),> 100 µM (inactive),> 100 µM (inactive),> 100 µM (inactive)
O=[N+]([O-])c1ccc(Cl)c(C2SCc3nc4ccccc4n32)c1 (stereo not drawn),24.9 µM (inactive),50.9 µM (inactive),28.7 µM (inactive),20.1 µM (inactive),28.1 µM (inactive),24.2 µM (inactive),16.1 µM (inactive),22.3 µM (inactive),32.6 µM (inactive),–,31.9 µM (inactive),40.6 µM (inactive),44.9 µM (inactive),31.6 µM (inactive),42.4 µM (inactive),–,–,–,–
COc1ccc(/C=C2\CCc3ccccc3C2=O)cc1OC,21.4 µM (inactive),31.1 µM (inactive),34.8 µM (inactive),31.6 µM (inactive),18.9 µM (inactive),21.4 µM (inactive),–,17.1 µM (inactive),32.9 µM (inactive),17.2 µM,22.3 µM (inactive),25.3 µM (inactive),24.5 µM (inactive),17.9 µM (inactive),51.8 µM (inactive),–,–,–,–
